Assay results reported in patent US20160000762A1, “IMPROVING COGNITIVE FUNCTION” (THE REGENTS OF THE UNIVERSITY OF CALIFORNIA, priority 2013, published 2016).

Columns and labels:
[1] = Cerebrovascular permeability and pharmacokinetic analysis of BTA-EG4 in mice; assay type: in vivo, male CD-1 mice; settings: 10 mg/kg i.p.
Experimental: Cerebrovascular permeability and pharmacokinetic analysis of BTA-EG4 in wild-type mice. The partitioning of BTA-EG4 between plasma and brain was studied in male CD-1 mice. The mice were dosed with 10 mg/kg (in 10% DMSO/90% PBS) intraparitoneally (IP, n=2 per time point) and the concentration of BTA-EG4 in the plasma and brain was measured over time. Blood was collected via cardiac puncture and was pooled in EDTA tubes, centrifuged, and the plasma isolated. The brain was collected from each mouse, snap frozen, and homogenized in 2 mL PBS. The concentration of BTA-EG4 in the plasma and brain at each time point was determined by LC/MS/MS and the concentrations of BTA-EG4 in the plasma and brain were plotted as a function of time. Pharmacokinetic parameters for the plasma and brain profile of BTA-EG4 were also calculated: half-life for BTA-EG4 in the plasma and brain (t1/2), the maximum concentration (Cmax) of BTA-EG4 in the plasma and brain, the area under the concentration-time curve (AUC), the brain-to-plasma ratio (BB), and the logarithmic brain-to-plasma ratio (Log BB).

[2] = system: Aβ; test: Aβ ELISA, conditioned media of primary cortical neurons; assay type: cell-based; settings: 1 or 5 μM, 24 h, vs control (10% DMSO)
Experimental: (§1) Aβ ELISA. Mouse brains were homogenized in tissue homogenization buffer containing 250 mM sucrose, 20 mM Tris base, protease, and phosphatase inhibitors. To measure soluble Aβ, DEA extraction was performed. Crude 10% homogenate was mixed with an equal volume of 0.4% diethylamine (DEA), sonicated, and ultracentrifuged for 1 hr at 100,000×g. The supernatant was collected and neutralized with 10% 0.5 M Tris, pH 6.8. Sensitive and specific ELISAs to rodent Aβ1-40 was purchased from IBL Transatlantic (Toronto, Canada) and conducted per the manufacturer's protocol.
(§2) To test whether BTA-EG4 alters Aβ production in vitro, primary cortical neurons were treated with BTA-EG4 (1 or 5 μM) or control (10% DMSO), and Aβ levels were measured using ELISA. […] We then examined whether BTA-EG4 can alter Aβ levels in vivo by injecting wild-type mice daily for 2 weeks with BTA-EG4 (15 or 30 mg/kg, 10% DMSO in saline, i.p.). […] Furthermore, BTA-EG4 altered APP processing in vivo, as monitored by increased sAPPα (α-secretase cleavage product) and decreased sAPPβ (β-secretase cleavage product) levels in BTA-EG4 injected wild-type mice (30 mg/kg, i.p) compared to control-injected mice (FIGS. 1E, 1F).

[3] = system: soluble Aβ 40; test: Aβ ELISA, 3× Tg AD mice; assay type: in vivo; settings: 30 mg/kg daily, 2 weeks
Experimental: as §1

[4] = system: T1, APP; test: Live cell surface immunostaining, primary hippocampal neurons; assay type: cell-based, Sprague-Dawley rats; settings: 5 μM, 24 h
T1 construct: expressed in transfected cells; host or cells: primary hippocampal neurons from E19 Sprague-Dawley rats
Experimental: (§3) Primary neuron culture and immunostaining. Primary hippocampal neurons from E19 Sprague-Dawley rats were cultured at 150 cells/mm^2 as previously described (Pak et al., 2001). Neurons were transfected using Lipofectamine™ 2000 (Invitrogen, Carlsbad, Calif., USA) or calcium phosphate precipitation with GFP+PLL, GFP+APP shRNA, or GFP+APP and treated with BTA-EG4. The following antibodies were used: mouse anti-GFP (Novus Biologicals, 9F9.F9), rabbit anti-GFP (Invitrogen, A11122), rabbit anti-GluR1 (Calbiochem, PC246), mouse anti-GluR2 (BD Pharmagen, 556341), mouse anti-postsynaptic density (PSD)-95 (NeuroMabs, Davis, Calif., USA), mouse anti-Synaptophysin (Sigma Aldrich, s5768), rabbit APP N-terminal (Sigma-Aldrich, A8967), anti-Ras (BD Biosciences, 610001), anti-RasGRF1 (Santa Cruz, C-20; BD Biosciences, 610149), anti-ERK1/2 (Cell Signaling, 4695), anti-p-ERK1/2 (Invitrogen, 36880), anti-CREB (Cell Signaling, D76D11), anti-p-CREB (Millipore, 06-519), and mouse anti-c-Myc (Novus Biologicals, 9E10). Cultured hippocampal neuron images were acquired by LSM 510 laser scanning confocal microscope (Zeiss). Confocal zseries image stacks encompassing entire dendrite segments were analyzed using MetaMorph software (Universal Imaging Corporation, Downington, Pa., USA).
Live cell surface immunostaining. […] Surface-labeled APP was detected with ALEXA FLUORO-555 secondary antibodies. […]

[5] = system: RasGRF1, p-ERK, p-CREB; test: Ras signaling immunofluorescence, primary hippocampal neurons; assay type: cell-based, Sprague-Dawley rats; settings: 5 μM
Experimental: as §3
We next investigated the molecular mechanism by which BTA-EG4 may alter dendritic spine formation. Ras, a small GTPase, is involved in dendritic spine formation and synaptic delivery of AMPA receptors (Zhu et al., 2002; Lee et al., 2011). Moreover, abnormal Ras signaling is associated with neurodegenerative disease, causing cognitive impairments and learning deficits (Stornetta and Zhu, 2011). Thus, we initially investigated the effect of BTA-EG4 on Ras signaling by treating primary hippocampal neurons with BTA-EG4 (5 μM) or control for 24 hrs. […] Further, levels of active Ras were elevated following BTA-EG4 treatment (5 μM) in primary cortical neurons (FIG. 7C) and following BTA-EG4 treatment (30 mg/kg) in wild-type mice (FIG. 7D). We also examined whether BTA-EG4 can alter the activity of downstream Ras signaling proteins, including p-ERK and p-CREB.
Since we observed that BTA-EG4 and APP could possibly regulate dendritic spine density through Ras-dependent mechanisms, we then examined whether BTA-EG4 requires APP to modulate Ras signaling. To test this hypothesis, primary hippocampal neurons were transfected with GFP and APP shRNA or GFP and APP, treated with control or BTA-EG4 (5 μM), then immunostained against RasGRF1 (FIGS. 9A, 9B).

[6] = system: Aβ; test: Aβ ELISA, brain of injected wild-type mice; assay type: in vivo; settings: 15 or 30 mg/kg i.p. daily for 2 weeks (both doses)
Experimental: as §1, §2

T1 sequence (P05067 18-770): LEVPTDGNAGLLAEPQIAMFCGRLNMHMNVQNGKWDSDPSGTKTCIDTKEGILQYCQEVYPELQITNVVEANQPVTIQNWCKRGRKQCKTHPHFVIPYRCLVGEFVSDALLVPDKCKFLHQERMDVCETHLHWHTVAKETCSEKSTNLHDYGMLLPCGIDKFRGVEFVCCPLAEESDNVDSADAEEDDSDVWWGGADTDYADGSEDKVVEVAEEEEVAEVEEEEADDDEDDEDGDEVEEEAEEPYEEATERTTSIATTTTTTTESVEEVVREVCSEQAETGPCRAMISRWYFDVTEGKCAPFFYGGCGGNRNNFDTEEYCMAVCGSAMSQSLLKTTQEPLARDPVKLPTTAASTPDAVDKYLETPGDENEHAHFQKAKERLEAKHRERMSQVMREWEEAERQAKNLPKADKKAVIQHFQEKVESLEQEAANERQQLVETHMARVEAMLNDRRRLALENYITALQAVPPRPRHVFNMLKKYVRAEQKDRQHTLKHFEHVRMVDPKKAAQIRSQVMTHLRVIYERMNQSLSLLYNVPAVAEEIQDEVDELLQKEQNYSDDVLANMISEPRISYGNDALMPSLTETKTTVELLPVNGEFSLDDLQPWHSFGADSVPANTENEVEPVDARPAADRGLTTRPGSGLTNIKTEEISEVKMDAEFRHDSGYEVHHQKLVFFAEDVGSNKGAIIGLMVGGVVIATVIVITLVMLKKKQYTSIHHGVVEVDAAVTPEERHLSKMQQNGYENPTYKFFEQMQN

BTA-EG4
blood brain barrier crossing [1]: readily crosses the blood brain barrier
logarithmic brain-to-plasma ratio (log BB) ([1]; n=2 per time point, estimated value): 0.43
Aβ protein levels [2]: significantly decreased
soluble Aβ 40 levels ([3]; 2-3 months): decrease
soluble Aβ 40 level ([3]; 6-10 months): without changes
soluble Aβ 40 level ([3]; 13-16 months): none of the measured parameters were significantly altered
cell surface levels of APP [4]: increased
total levels of APP [4]: without affecting
levels of RasGRF1 ([5]; 24 h): increased
phosphorylation of CREB ([5]; 24 h): increased
phosphorylation of ERK ([5]; 24 h): increased
total ERK or CREB levels ([5]; 24 h): without altering
RasGRF1 ([5]; knockdown of APP): did not increase
p-CREB ([5]; knockdown of APP): ineffective
p-ERK ([5]; knockdown of APP): ineffective
RasGRF1 ([5]; overexpression of APP): significantly increased
p-CREB ([5]; overexpression of APP): significantly increased
p-ERK ([5]; overexpression of APP): significantly increased
Aβ peptide levels in brain [6]: significantly decreased
